Like-named read-outs stand apart in the source and are kept apart here.
Assays:
[1] = biological target: BACE 1 (Beta Secretase enzyme) (Homo sapiens (Human), UniProt P56817); assay: In vitro enzymatic BACE FRET assay; type: biochemical; conditions: enzyme 0.2 nM, FRET substrate 50 nM, pH 4.2
Protocol: In Vitro Enzymatic BACE FRET (Fluorescence Resonance Energy Transfer) Assay (Enzyme Assay Data in the Example Table I)
The assay buffer used in this screen is 0.05 M acetate, pH 4.2, 10% DMSO final, 100 uM genapol (which is a nonionic detergent, below its Critical Micelle Concentration). […] This assay is effectively started by the addition of FRET substrate (50 nM) and the combination is incubated for one hour. The FRET assay is terminated with by addition of Tris buffer, which raises the pH to neutrality, and the fluorescence is determined. The FRET substrate is a peptide with commercially available fluorophore and quencher, on opposite sides of the BACE cleavage site. Proteolytic cleavage of the FRET substrate releases quenching of fluorescence (excitation […] and […]).

[2] = system: Aβ40 in conditioned medium of cells expressing amyloid precursor protein; assay: In vitro BACE cell-based assay (HEK cell assay), Aβ40 sandwich ELISA; conditions: Homo sapiens, HEK293, 24 h, Aβ40 in supernatant after 24 h incubation
Protocol: In Vitro BACE Cell-Based Assay
The cell-based assay measures inhibition or reduction of Aβ40 in conditioned medium of test compound treated cells expressing amyloid precursor protein.
Cells stably expressing Amyloid Precursor Protein (APP) were plated at a density of 40K cells/well in 96 well plates (Costar). The cells were cultivated for 24 hours at 37° C. and 5% CO2 in DMEM supplemented with 10% FBS. The test compounds were then added to cells in 10-point dose response concentrations with the starting concentration being either 100 μM or 10 μM. The compounds were diluted from stock solutions in DMSO and the final DMSO concentration of the test compounds on cells was 0.1%. After 24 h of incubation with the test compounds the supernatant conditioned media was collected and the Aβ 40 levels were determined using a sandwich ELISA. The IC50 of the compound was calculated from the percent of control or percent inhibition of Aβ 40 as a function of the concentration of the test compound.
The sandwich ELISA to detect Aβ 40 was performed in 96 well microtiter plates, which were pre-treated with goat anti-rabbit IgG (Pierce). The capture and detecting antibody pair that were used to detect Aβ 40 from cell supernatants were affinity purified pAb40 (Biosource) and biotinylated 6E10 (Signet Labs Inc.), respectively. The optimal concentration for the pAb40 antibody was 3 μg/ml in Superblock/TBS (Pierce) that was supplemented with 0.05% Tween 20 (Sigma).
Cellular supernatants were incubated with the capture antibody for 3 h at 4° C., followed by 3 wash steps in TBS-tween (0.05%). The detecting antibody incubation was for 2 h at 4° C., again followed by the wash steps as described previously. The final readout of the ELISA is Time-Resolved Fluorescence (counts per minute) using Delfia reagents Streptavidin-Europium and Enhancement solutions (Perkin Elmer) and the Victor 2 multilabel counter (Perkin Elmer).

[3] = average IC50, read-out: BACE 1 FRET assay
[4] = average IC50, read-out: HEK cell assay

BACE 1 (Beta Secretase enzyme), sequence (P56817 46-501): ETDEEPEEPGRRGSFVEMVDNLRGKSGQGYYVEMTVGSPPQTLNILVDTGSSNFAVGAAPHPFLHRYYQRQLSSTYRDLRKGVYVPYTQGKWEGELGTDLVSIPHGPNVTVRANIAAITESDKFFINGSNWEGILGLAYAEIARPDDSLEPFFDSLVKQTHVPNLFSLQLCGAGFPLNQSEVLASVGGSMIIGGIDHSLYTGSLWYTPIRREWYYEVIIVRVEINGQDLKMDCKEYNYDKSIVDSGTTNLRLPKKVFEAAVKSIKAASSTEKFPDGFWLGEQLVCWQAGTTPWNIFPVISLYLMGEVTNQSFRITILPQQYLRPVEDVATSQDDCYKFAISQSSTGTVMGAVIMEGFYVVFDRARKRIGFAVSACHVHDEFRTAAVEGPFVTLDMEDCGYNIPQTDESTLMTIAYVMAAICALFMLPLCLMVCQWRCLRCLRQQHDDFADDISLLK

CN1C(=O)C[C@]2(N=C1N)c1cc(-c3cccnc3F)ccc1Oc1c2cc(C2CCOC(C)(C)C2)nc1F (stereo partly drawn) [Example 28, (4′S)-2′-amino-3-(2,2-dimethyltetrahydro-2H-pyran-4-yl)-1-fluoro-7-(2-fluoropyridin-3-yl)-1′-methyl-1′H-spiro[chromeno[2,3-c]pyridine-5,4′-pyrimidin]-6′(5′H)-one]
IC50 [1, 3]: 2 nM
IC50 [2, 4]: 2.2 nM

CC#Cc1cncc(-c2ccc3c(c2)[C@]2(N=C(N)N(C)C2=O)c2cc(C4=CCOCC4)cc(F)c2O3)c1 (stereo in doubt) [Example 30, (4R)-2-amino-2′-(3,6-dihydro-2H-pyran-4-yl)-4′-fluoro-1-methyl-7′-(5-(1-propyn-1-yl)-3-pyridinyl)spiro[imidazole-4,9′-xanthen]-5(1H)-one, (4S)-2-amino-2′-(3,6-dihydro-2H-pyran-4-yl)-4′-fluoro-1-methyl-7′-(5-(1-propyn-1-yl)-3-pyridinyl)spiro[imidazole-4,9′-xanthen]-5(1H)-one]
IC50 [1, 3]: 0.9 nM
IC50 [2, 4]: 13.7 nM

CN1C(=O)[C@]2(N=C1N)c1cc(C3=CCOCC3)ccc1Oc1ccc(-c3cccnc3F)cc12 (stereo in doubt) [Example 9, 2-amino-2′-(3,6-dihydro-2H-pyran-4-yl)-7′-(2-fluoropyridin-3-yl)-1-methylspiro[imidazole-4,9′-xanthen]-5(1H)-one]
IC50 [1, 3]: 0.9 nM
IC50 [2, 4]: 3.6 nM

Cc1ccc(-c2cc(F)c3c(c2)[C@@]2(N=C(N)N(C)C2=O)c2cc(-c4cccc(Cl)c4)ccc2O3)cc1 [Example 37, (4S)-2-amino-7′-(3-chlorophenyl)-4′-fluoro-1-methyl-2′-(4-methylphenyl)spiro[imidazole-4,9′-xanthen]-5(1H)-one]
IC50 [1, 3]: 2.9 nM
IC50 [2, 4]: 147 nM

CN1C(=O)C[C@]2(N=C1N)c1cc(-c3cccnc3F)ccc1Oc1c2cc(-c2ccnc(F)c2)nc1F [Example 19, (S)-2′-amino-1-fluoro-7-(2-fluoropyridin-3-yl)-3-(2-fluoropyridin-4-yl)-1′-methyl-1′H-spiro[chromeno[2,3-c]pyridine-5,4′-pyrimidin]-6′(5′H)-one]
IC50 [1, 3]: 1.4 nM
IC50 [2, 4]: 82 nM

COc1ccc2c(c1)[C@]1(N=C(N)N(C)C1=O)c1cc(-c3cncnc3)ccc1O2 (stereo in doubt) [Example 8, 2-amino-2′-methoxy-1-methyl-7′-(pyrimidin-5-yl)spiro[imidazole-4,9′-xanthen]-5(1H)-one]
IC50 [1, 3]: 13.4 nM
IC50 [2, 4]: 108 nM

CN1C(=N)N[C@@]2(CC1=O)c1cc(Br)ccc1Oc1cnc(Cl)cc12 [Example 20-A, (S)-7-bromo-3-chloro-2′-imino-1′-methyl-2′,3′-dihydro-1′H-spiro[chromeno[2,3-c]pyridine-5,4′-pyrimidin]-6′(5′H)-one]
IC50 ([1]; class symbols, read-out: BACE 1 FRET assay (IC50 class)): > 1000 nM
IC50 ([2]; class symbols, read-out: HEK cell assay (IC50 class)): > 1000 nM

CN1C(=O)C[C@]2(N=C1N)c1cc(-c3cccnc3F)ccc1Oc1c2cc(Cl)nc1F [Example 15, (S)-2′-amino-3-chloro-1-fluoro-7-(2-fluoropyridin-3-yl)-1′-methyl-1′H-spiro[chromeno[2,3-c]pyridine-5,4′-pyrimidin]-6′(5′H)-one]
IC50 [1, 3]: 33.2 nM
IC50 [2, 4]: 643 nM

COc1ccc2c(c1)[C@]1(N=C(N)N(C)C1=O)c1cc(-c3ccc(C)cc3)cc(F)c1O2 (mixture of isomers) [Example 29, (4R)-2-amino-4′-fluoro-7′-methoxy-1-methyl-2′-(4-methylphenyl)spiro[imidazole-4,9′-xanthen]-5(1H)-one and (4S)-2-amino-4′-fluoro-7′-methoxy-1-methyl-2′-(4-methylphenyl)spiro[imidazole-4,9′-xanthen]-5(1H)-one]
IC50 [1, 3]: 13.6 nM
IC50 [2, 4]: 1970 nM

CN1C(=O)CC2(N=C1N)c1cc(-c3cccnc3F)ccc1Oc1c2cc(-c2ccnc(F)c2)nc1F (centres unmarked) [Example 18, 2′-amino-1-fluoro-7-(2-fluoropyridin-3-yl)-3-(2-fluoropyridin-4-yl)-1′-methyl-1′H-spiro[chromeno[2,3-c]pyridine-5,4′-pyrimidin]-6′(5′H)-one]
IC50 [1, 3]: 2.4 nM
IC50 [2, 4]: 71.6 nM

Reference: US8957083B2, “Spiro-amino-imidazolone and spiro-amino-dihydro-pyrimidinone compounds as beta-secretase modulators and methods of use” (Amgen Inc., priority 2010, dated 2015)
